Experimental data published in patent publication US8865623B2, “Herbicidally active cyclic diones and derivatives thereof, processes for their preparation, compositions, and method of controlling weeds” (Syngenta Limited, priority 2009, dated 2014).

Assays:
Type in all cases: in vivo
[1] = test system: Alopecurus myosuroides (ALOMY); assay: Post-emergence herbicidal activity, glasshouse pot test; conditions: Alopecurus myosuroides, 312 h, rate 250 g/ha, evaluated after 13 days, glasshouse, read-out: Post-emergence activity ALOMY (100=total damage to plant; 0=no damage to plant)
In short: (§1)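 Visual damage (0 = no damage, 100 = total damage) was rated 13 days after spraying. Treatment was applied one day after sowing for pre-emergence, or after 8 days of cultivation for post-emergence, as aqueous spray of an acetone/water (50:50) formulation with 0.5% Tween 20.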

Lolium perenne (LOLPE) [2] = assay: as above; conditions: Lolium perenne, 312 h, rate 250 g/ha, evaluated after 13 days, glasshouse, read-out: Post-emergence activity LOLPE (100=total damage to plant; 0=no damage to plant)
In short: as §1

[3] = test system: Echinochloa crus-galli (ECHCG); assay: as above; conditions: Echinochloa crus-galli, 312 h, rate 250 g/ha, evaluated after 13 days, glasshouse, read-out: Post-emergence activity ECHCG (100=total damage to plant; 0=no damage to plant)
In short: as §1

Avena fatua (AVEFA) [4] = assay: as above; conditions: Avena fatua, 312 h, rate 250 g/ha, evaluated after 13 days, glasshouse, read-out: Post-emergence activity AVEFA (100=total damage to plant; 0=no damage to plant)
In short: as §1

[5] = test system: Alopecurus myosuroides (ALOMY); assay: Pre-emergence herbicidal activity, glasshouse pot test; conditions: Alopecurus myosuroides, 312 h; Rate 250 g/ha; pre-emergence spray; evaluated after 13 days; read-out: Pre-emergence activity ALOMY (100=total damage to plant; 0=no damage to plant)
In short: as §1

Lolium perenne (LOLPE) [6] = assay: as above; conditions: Lolium perenne, 312 h; Rate 250 g/ha; pre-emergence spray; evaluated after 13 days; read-out: Pre-emergence activity LOLPE (100=total damage to plant; 0=no damage to plant)
In short: as §1

[7] = test system: Echinochloa crus-galli (ECHCG); assay: as above; conditions: Echinochloa crus-galli, 312 h; Rate 250 g/ha; pre-emergence spray; evaluated after 13 days; read-out: Pre-emergence activity ECHCG (100=total damage to plant; 0=no damage to plant)
In short: as §1

Avena fatua (AVEFA) [8] = assay: as above; conditions: Avena fatua, 312 h; Rate 250 g/ha; pre-emergence spray; evaluated after 13 days; read-out: Pre-emergence activity AVEFA (100=total damage to plant; 0=no damage to plant)
In short: as §1

| Compound | pest or weed control at 250 g/ha [1] [%] | pest or weed control at 250 g/ha (Lolium perenne (LOLPE) [2]) [%] | pest or weed control at 250 g/ha [3] [%] | pest or weed control at 250 g/ha (Avena fatua (AVEFA) [4]) [%] | pest or weed control at 250 g/ha [5] [%] | pest or weed control at 250 g/ha (Lolium perenne (LOLPE) [6]) [%] | pest or weed control at 250 g/ha [7] [%] | pest or weed control at 250 g/ha (Avena fatua (AVEFA) [8]) [%] |
| --- | --- | --- | --- | --- | --- | --- | --- | --- |
| CCc1ccc(Oc2nc(OC)cc(OC)n2)cc1C1=C(O)C(C)(C)OC(C)(C)C1=O [Example A-127] | 0 | 10 | 30 | 0 | 0 | 0 | 0 | 0 |
| CCc1ccc(Oc2ccc(F)cc2)cc1C1=C(O)[C@@H]2CC[C@](C)(C1=O)C2(C)C [Example A-239] | 20 | 30 | 70 | 10 | 20 | 60 | 90 | 0 |
| CCc1ccc(Oc2ncc(Cl)cc2F)cc1C1=C(O)CC2(CCOCC2)CC1=O [Example A-274] | 100 | 100 | 100 | 100 | 100 | 100 | 100 | 100 |
| CCc1ccc(Oc2ncc(Cl)cn2)cc1C1=C(O)CC2(CCOCC2)CC1=O [Example A-263] | 100 | 60 | 100 | 90 | 60 | 50 | 100 | 20 |
| CCc1ccc(Oc2ccc([N+](=O)[O-])c(Cl)c2)cc1C1=C(O)CC2(CCOCC2)CC1=O [Example A-276] | 60 | 40 | 100 | 10 | 40 | 70 | 100 | 10 |
| CCc1ccc(Oc2ccc([N+](=O)[O-])c(Cl)c2)cc1C1=C(O)[C@@H]2CC[C@](C)(C1=O)C2(C)C [Example A-316] | 50 | 40 | 100 | 80 | 70 | 100 | 100 | 60 |
| CCc1ccc(Oc2cccc(Br)c2)cc1C1=C(O)C(C)(C)OC(C)(C)C1=O [Example A-32] | 30 | 40 | 100 | 20 | 30 | 80 | 90 | 20 |
| CCc1ccc(Oc2ccc([N+](=O)[O-])cc2F)cc1C1=C(O)C(C)(C)OC(C)(C)C1=O [Example A-20] | 0 | 50 | 80 | 70 | 40 | 0 | 100 | 20 |
| CCc1ccc(Oc2c(Cl)cc(C(F)(F)F)cc2Cl)cc1C1=C(O)C(C)(C)OC(C)(C)C1=O [Example A-204] | 60 | 40 | 70 | 50 | 0 | 10 | 20 | 0 |
| CCc1ccc(Oc2ccc(Br)cc2[N+](=O)[O-])cc1C1=C(O)C(C)(C)OC(C)(C)C1=O [Example A-227] | 70 | 70 | 90 | 60 | 30 | 60 | 80 | 20 |
| CCc1ccc(Oc2nc3ccccc3s2)cc1C1=C(O)[C@H]2CC[C@H](C2)C1=O [Example A-337] | 90 | 90 | 100 | 90 | 90 | 100 | 100 | 70 |
| CCc1ccc(Oc2ccc(Cl)cc2Cl)cc1C1=C(O)CC2(CCOCC2)CC1=O [Example A-190] | 80 | 90 | 100 | 90 | 30 | 50 | 80 | 30 |
| CCc1ccc(Oc2ncc(C(F)(F)F)cc2Cl)cc1C1=C(O)C(C)(C)OC(C)(C)C1=O [Example A-45] | 100 | 100 | 100 | 100 | 100 | 100 | 100 | 100 |
| CCc1ccc(Oc2nc(Cl)c(Cl)cc2Cl)cc1C1=C(O)C(C)(C)OC(C)(C)C1=O [Example A-142] | 20 | 10 | 70 | 20 | 20 | 10 | 40 | 0 |
| CCc1ccc(Oc2ncc(Cl)cc2Cl)cc1C1=C(O)CC(C)(C)CC1=O [Example A-84] | 100 | 90 | 100 | 50 | 70 | 100 | 100 | 60 |
| CCc1ccc(Oc2ccc(Cl)cc2F)cc1C1=C(O)CCC(C)(C)C1=O [Example A-112] | 20 | 60 | 70 | 20 | 40 | 90 | 60 | 30 |
| CCc1ccc(Oc2ccc(C(F)(F)F)c(Cl)c2)cc1C1=C(O)[C@H]2CC[C@H](C2)C1=O [Example A-332] | 100 | 100 | 100 | 100 | 80 | 100 | 100 | 70 |
| CCc1ccc(Oc2ccc(Cl)cc2Cl)cc1C1=C(O)[C@H]2CC[C@H](C2)C1=O (single isomer, unassigned) [Example A-90] | 60 | 80 | 90 | 30 | 70 | 90 | 100 | 70 |
